Data as given in ChEMBL document CHEMBL4190322, “Structure-based development of novel triazoles and related thiazolotriazoles as anticancer agents and Cdc25A/B phosphatase inhibitors. Synthesis, in vitro biological evaluation, molecular docking and in silico ADME-T studies” (Eur J Med Chem, 2017).
Activity calls are given as the source filed them. The rule behind the calls is not given here.

What was measured:
Assay type in all cases: functional
HL-60 = assay: Growth inhibition of human HL60 cells at 10 uM after 48 hrs by SRB assay relative to control
RXF 393 = assay: Growth inhibition of human RXF393 cells at 10 uM after 48 hrs by SRB assay relative to control
UO-31 = assay: Growth inhibition of human UO31 cells at 10 uM after 48 hrs by SRB assay relative to control; conditions: UO-31, 48 h, read-out: GI
PC-3 = assay: Growth inhibition of human PC3 cells at 10 uM after 48 hrs by SRB assay relative to control; conditions: PC-3, 48 h, read-out: GI
LOX IMVI = assay: Growth inhibition of human LOXIMVI cells at 10 uM after 48 hrs by SRB assay relative to control; conditions: read-out: GI
HCT-116 = assay: Growth inhibition of human HCT116 cells at 10 uM after 48 hrs by SRB assay relative to control
MDA-MB-468 = assay: Growth inhibition of human MDA-MB-468 cells at 10 uM after 48 hrs by SRB assay relative to control; conditions: MDA-MB-468, 48 h, read-out: GI
NCI-H226 = assay: Growth inhibition of human NCI-H226 cells at 10 uM after 48 hrs by SRB assay relative to control
NCI/ADR-RES = assay: Growth inhibition of human NCI/ADR-RES cells at 10 uM after 48 hrs by SRB assay relative to control; conditions: read-out: GI
CCRF-CEM = assay: Growth inhibition of human CCRF-CEM cells at 10 uM after 48 hrs by SRB assay relative to control; conditions: read-out: GI
OVCAR-4 = assay: Growth inhibition of human OVCAR4 cells at 10 uM after 48 hrs by SRB assay relative to control
SF-268 = assay: Growth inhibition of human SF268 cells at 10 uM after 48 hrs by SRB assay relative to control
SNB-19 = assay: Growth inhibition of human SNB19 cells at 10 uM after 48 hrs by SRB assay relative to control
NCI-H322M = assay: Growth inhibition of human NCI-H322M cells at 10 uM after 48 hrs by SRB assay relative to control
A498 = assay: Growth inhibition of human A498 cells at 10 uM after 48 hrs by SRB assay relative to control; conditions: A498, 48 h, read-out: GI
Malme-3M = assay: Growth inhibition of human MALME-3M cells at 10 uM after 48 hrs by SRB assay relative to control
OVCAR-3 = assay: Growth inhibition of human OVCAR3 cells at 10 uM after 48 hrs by SRB assay relative to control
K562 = assay: Growth inhibition of human K562 cells at 10 uM after 48 hrs by SRB assay relative to control; conditions: K562, 48 h, read-out: GI
SR = assay: Growth inhibition of human SR cells at 10 uM after 48 hrs by SRB assay relative to control; conditions: read-out: GI
OVCAR-8 = assay: Growth inhibition of human OVCAR8 cells at 10 uM after 48 hrs by SRB assay relative to control
SNB-75 = assay: Growth inhibition of human SNB75 cells at 10 uM after 48 hrs by SRB assay relative to control; conditions: SNB-75, 48 h, read-out: GI
SK-MEL-2 = assay: Growth inhibition of human SK-MEL-2 cells at 10 uM after 48 hrs by SRB assay relative to control; conditions: SK-MEL-2, 48 h, read-out: GI
MOLT-4 = assay: Growth inhibition of human MOLT4 cells at 10 uM after 48 hrs by SRB assay relative to control; conditions: MOLT-4, 48 h, read-out: GI
UACC-62 = assay: Growth inhibition of human UACC62 cells at 10 uM after 48 hrs by SRB assay relative to control
MCF7 = assay: Growth inhibition of human MCF7 cells at 10 uM after 48 hrs by SRB assay relative to control
SK-OV-3 = assay: Growth inhibition of human SKOV3 cells at 10 uM after 48 hrs by SRB assay relative to control; conditions: SK-OV-3, 48 h, read-out: GI
U-251 = assay: Growth inhibition of human U251 cells at 10 uM after 48 hrs by SRB assay relative to control; conditions: U-251, 48 h, read-out: GI
786-0 = assay: Growth inhibition of human 786-0 cells at 10 uM after 48 hrs by SRB assay relative to control
KM12 = assay: Growth inhibition of human KM12 cells at 10 uM after 48 hrs by SRB assay relative to control; conditions: KM12, 48 h, read-out: GI
HOP-92 = assay: Growth inhibition of human HOP92 cells at 10 uM after 48 hrs by SRB assay relative to control; conditions: HOP-92, 48 h, read-out: GI
A549 = assay: Growth inhibition of human A549 cells at 10 uM after 48 hrs by SRB assay relative to control; conditions: A549, 48 h, read-out: GI
RPMI-8226 = assay: Growth inhibition of human RPMI8226 cells at 10 uM after 48 hrs by SRB assay relative to control
Hs-578T = assay: Growth inhibition of human Hs 578T cells at 10 uM after 48 hrs by SRB assay relative to control
CAKI-1 = assay: Growth inhibition of human Caki1 cells at 10 uM after 48 hrs by SRB assay relative to control; conditions: CAKI-1, 48 h, read-out: GI
SK-MEL-5 = assay: Growth inhibition of human SK-MEL-5 cells at 10 uM after 48 hrs by SRB assay relative to control; conditions: SK-MEL-5, 48 h, read-out: GI
NCI-H522 = assay: Growth inhibition of human NCI-H522 cells at 10 uM after 48 hrs by SRB assay relative to control; conditions: NCI-H522, 48 h, read-out: GI
HOP-62 = assay: Growth inhibition of human HOP62 cells at 10 uM after 48 hrs by SRB assay relative to control; conditions: HOP-62, 48 h, read-out: GI
NCI-H23 = assay: Growth inhibition of human NCI-H23 cells at 10 uM after 48 hrs by SRB assay relative to control; conditions: NCI-H23, 48 h, read-out: GI
HT-29 = assay: Growth inhibition of human HT-29 cells at 10 uM after 48 hrs by SRB assay relative to control
UACC-257 = assay: Growth inhibition of human UACC257 cells at 10 uM after 48 hrs by SRB assay relative to control

Row | SMILES | growth inhibition (GI) (HL-60) | growth inhibition (GI) (RXF 393) | inhibition of growth at 10 µM (UO-31) | inhibition of growth at 10 µM (PC-3) | inhibition of growth at 10 µM (LOX IMVI) | inhibition of growth at 10 µM (MDA-MB-468) | inhibition of growth at 10 µM (NCI/ADR-RES) | inhibition of growth at 10 µM (CCRF-CEM) | inhibition of growth at 10 µM (A498) | inhibition of growth at 10 µM (K562) | inhibition of growth at 10 µM (SR) | inhibition of growth at 10 µM (SNB-75) | inhibition of growth at 10 µM (SK-MEL-2) | inhibition of growth at 10 µM (MOLT-4) | inhibition of growth at 10 µM (SK-OV-3) | inhibition of growth at 10 µM (U-251) | growth inhibition (GI) (786-0) | inhibition of growth at 10 µM (KM12) | inhibition of growth at 10 µM (HOP-92) | inhibition of growth at 10 µM (A549) | further results
1 | CCSc1nnc(Cc2ccc(OC)cc2)n1-c1ccc(C)cc1 | inactive | inactive | 14.2% | 14.3% | 3.04% | 2.5% | 10.1% | 16.7% | 6.56% | 20.2% | 8.17% | 4% | 1.9% | 17.7% | 6.45% | 1.35% | inactive | 6.34% | 31.6% | 3.38% | inhibition of growth at 10 µM (HCT-116; HCT-116, 48 h, read-out: GI): 4.52%; growth inhibition (GI) (NCI-H226): inactive; growth inhibition (GI) (OVCAR-4): inactive; growth inhibition (GI) (SF-268): inactive; growth inhibition (GI) (SNB-19): inactive; growth inhibition (GI) (NCI-H322M): inactive; growth inhibition (GI) (Malme-3M): inactive; growth inhibition (GI) (OVCAR-3): inactive; growth inhibition (GI) (OVCAR-8): inactive; growth inhibition (GI) (UACC-62): inactive; growth inhibition (GI) (MCF7): inactive; inhibition of growth at 10 µM (RPMI-8226; RPMI-8226, 48 h, read-out: GI): 13.5%; growth inhibition (GI) (Hs-578T): inactive; inhibition of growth at 10 µM (CAKI-1): 4.82%; inhibition of growth at 10 µM (SK-MEL-5): 2%; inhibition of growth at 10 µM (NCI-H522): 14.6%; inhibition of growth at 10 µM (HOP-62): 6%; inhibition of growth at 10 µM (NCI-H23): 4.3%; growth inhibition (GI) (HT-29): inactive; growth inhibition (GI) (UACC-257): inactive
2 | COc1ccc(Cc2nnc(SCC(=O)c3ccc(C)cc3)n2-c2ccccc2)cc1 | inactive | inactive | 30.2% | 20.7% | 2% | 19.3% | 16.6% | 5.01% | 26% | 7.62% | 7.61% | 8.11% | 23% | 9.02% | 13.9% | 4.09% | inactive | 4.22% | 14.3% | 17.5% | growth inhibition (GI) (HCT-116): inactive; inhibition of growth at 10 µM (NCI-H226; NCI-H226, 48 h, read-out: GI): 2.21%; inhibition of growth at 10 µM (OVCAR-4; OVCAR-4, 48 h, read-out: GI): 1.87%; inhibition of growth at 10 µM (SF-268; SF-268, 48 h, read-out: GI): 3.62%; inhibition of growth at 10 µM (SNB-19; SNB-19, 48 h, read-out: GI): 4.85%; inhibition of growth at 10 µM (NCI-H322M; read-out: GI): 8.17%; inhibition of growth at 10 µM (Malme-3M; read-out: GI): 5.45%; inhibition of growth at 10 µM (OVCAR-3; OVCAR-3, 48 h, read-out: GI): 4.05%; inhibition of growth at 10 µM (OVCAR-8; OVCAR-8, 48 h, read-out: GI): 1.78%; inhibition of growth at 10 µM (UACC-62; UACC-62, 48 h, read-out: GI): 14%; inhibition of growth at 10 µM (MCF7; MCF7, 48 h, read-out: GI): 14.6%; growth inhibition (GI) (RPMI-8226): inactive; growth inhibition (GI) (Hs-578T): inactive; inhibition of growth at 10 µM (CAKI-1): 7.83%; inhibition of growth at 10 µM (SK-MEL-5): 3.36%; inhibition of growth at 10 µM (NCI-H522): 19%; inhibition of growth at 10 µM (HOP-62): 6.7%; inhibition of growth at 10 µM (NCI-H23): 7%; growth inhibition (GI) (HT-29): inactive; inhibition of growth at 10 µM (UACC-257; UACC-257, 48 h, read-out: GI): 7.67%
